# Columns and labels:
# [1] = tested on: SAS cells; experiment: Cytotoxicity test (MTT test) on SAS cells; type: cell-based, human; settings: SAS cells treated 48 hours, MTT survival rate
# Procedure: (§1) The human oral cancer cells used in the Examples SCC4 and SAS are cultivated in a Dulbecco's Modified Eagle's medium (DMEM) cell culture having 10% fetal bovine serum (FBS). The cells are cultivated in an environment having 5% carbon dioxide in 37 degree Celsius. When enough cells are cultivated, the subsequent analysis and tests are performed.
# (§2) The MTT reagent (namely, 3-(4,5-dimethylthiazol)-2,5-diphenyltetrazoliumbromide) is a yellow dye. After the MTT reagents are reacted with succinatedehydrogenase-ubiquinone (SDH) in the mitochondrion and cytochrome C, water insoluble blue-purple crystals are formed. After the crystals are dissolved in DMSO solution, the cell survival condition may be determined by the absorbance of the solution at 570 nm, so that the survival ratio of the cells can be calculated.
# (§3) DMEM cell culture without serum are provided for preparing MTT solution having a concentration of 5 milligrams per milliliter. […]
# (§4) The SCC4 or SAS cells are planted in a 48-well plate (each having 1×10^4 cells). […] And then, the absorbance of the supernatant at 570 nm can be obtained by an enzyme-linked immunosorbent assay (ELISA) reader (model: VersaMax™ Microplate Reader, Molecular devices, Sunnyvale, USA).
# [2] = tested on: SCC4 cells; experiment: Cytotoxicity test (MTT test) on SCC4 cells; type: cell-based, human; settings: SCC4 cells treated 48 hours, MTT survival rate
# Procedure: as §1, §2, §3, §4
Substance,IC50 for SAS cells [1] [microgram per milliliter],IC50 for SCC4 cells [2] [microgram per milliliter]
photosan,1.75,2.4
pyropheophorbide-phosphatidic acid [pyro-PA],0.1,0.8
